Values joined by “and” are separate entries in the source; they are usually repeats but may differ in a detail not shown here. Identical values can stand only once.
Conditions: [M+H]+; instrument: DT; single field, calibrated with ESI Low Concentration Tuning Mix (Agilent)

collision cross section (N2) | Compound
127.2 Å² | CC(=O)c1ccc(O)cc1O [2',4'-DIHYDROXYACETOPHENONE]
118.3 Å² and 124.8 Å² | Nc1ccccc1O [2-AMINOPHENOL]

Further lines, the compound ahead of its results:

Compound | collision cross section (N2)
Cn1cnc2c(ncn2[C@@H]2O[C@H](CO)[C@@H](O)[C@H]2O)c1=N [1-METHYLADENOSINE] | 160 Å² and 164.7 Å²
CC(C)(N)C(=O)O [2-AMINOISOBUTYRATE] | 123.8 Å²
Cn1cnc(N)c2ncnc1-2 [3-METHYLADENINE] | 126.3 Å²
Cn1cncc1CCN [3-METHYLHISTAMINE] | 123.8 Å²
O=C(O)Cc1cnc[nH]1 [4-IMIDAZOLEACETATE] | 123.9 Å²
Cc1ncc(CO)c(C(=O)O)c1O [4-PYRIDOXATE] | 135.5 Å²

Same assay, conditions: [M+K]+; instrument: DT; single field, calibrated with ESI Low Concentration Tuning Mix (Agilent)

collision cross section (N2) | Compound
147.4 Å² | Cc1ncc(CO)c(C(=O)O)c1O [4-PYRIDOXATE]

Same assay, conditions: [M+Na]+; instrument: DT; single field, calibrated with ESI Low Concentration Tuning Mix (Agilent)

collision cross section (N2) | Compound
170.7 Å² | Cn1cnc2c(ncn2[C@@H]2O[C@H](CO)[C@@H](O)[C@H]2O)c1=N [1-METHYLADENOSINE]
149.1 Å² | O=C(O)C1=CC(=O)[C@@H](O)[C@H](O)C1 [3-DEHYDROSHIKIMATE]
135.9 Å² | CC(O)(CC(=O)O)CC(=O)O [3-HYDROXYMETHYLGLUTARATE]
150.2 Å² | Cc1ncc(CO)c(C(=O)O)c1O [4-PYRIDOXATE]

Same assay, conditions: [M-H]-; instrument: DT; single field, calibrated with ESI Low Concentration Tuning Mix (Agilent)

collision cross section (N2) | Compound
126.3 Å² | CC(=O)c1ccc(O)cc1O [2',4'-DIHYDROXYACETOPHENONE]
113.8 Å² | O=c1cccc(O)[nH]1 [2,6-DIHYDROXYPYRIDINE]
118 Å² | Nc1ccccc1O [2-AMINOPHENOL]
122.3 Å² | OCc1cccc(O)c1 [3-HYDROXYBENZYL ALCOHOL]
131.1 Å² | O=C(O)/C=C/c1ccc(O)cc1 [4-COUMARATE]

The next lines start with the compound.

Compound | collision cross section (N2)
Cn1cnc2c(ncn2[C@@H]2O[C@H](CO)[C@@H](O)[C@H]2O)c1=N [1-METHYLADENOSINE] | 162.7 Å²
O=C(O)C(O)c1ccc(O)c(O)c1 (centres undefined) [3,4 DIHYDROXYMANDELATE] | 137.4 Å²
O=C(O)C1=CC(=O)[C@@H](O)[C@H](O)C1 [3-DEHYDROSHIKIMATE] | 132 Å²
CC(O)(CC(=O)O)CC(=O)O [3-HYDROXYMETHYLGLUTARATE] | 126.5 Å²
COc1cc(C(O)C(=O)O)ccc1O (centres undefined) [3-METHOXY-4-HYDROXYMANDELATE] | 143.5 Å²
Cc1ncc(CO)c(C(=O)O)c1O [4-PYRIDOXATE] | 130.6 Å²

Conditions: [M+H-H2O]+; instrument: TW; calibrated with polyalanine and drug standards

Compound | collision cross section (N2)
COc1ccc2c(c1)OC[C@@H](Cc1ccc(OC)c(OC)c1)[C@H]2O [TETRAHYDROSAPPANONE A TRIMETHYL ETHER] | 172 Å²
COc1cc([C@@H]2c3cc4c(c(O)c3C[C@H]3COC(=O)[C@@H]32)OCO4)cc(OC)c1OC [beta-PELTATIN] | 189 Å²

Same assay, conditions: [M+H]+; instrument: TW; calibrated with polyalanine and drug standards

collision cross section (N2) | Compound
130.2 Å² | O=C(O)c1cccnc1C(=O)O [QUINOLINIC ACID]
156.5 Å² | Cc1c(NC(C)C)c(=O)n(-c2ccccc2)n1C [RAMIFENAZONE]
205.2 Å² | COc1ccccc1OCC(O)CN1CCN(CC(=O)Nc2c(C)cccc2C)CC1 (centres undefined) [RANOLAZINE]
172.6 Å² | CN(CCOc1ccc(CC2SC(=O)NC2=O)cc1)c1ccccn1 (centres undefined) [ROSIGLITAZONE]
151.3 Å² | O=C(Oc1ccccc1C(=O)O)c1ccccc1O [SALSALATE]
150.8 Å² | Nc1ccc(S(=O)(=O)Nc2nccs2)cc1 [SULFATHIAZOLE]
193.5 Å² | O=C1C(CCS(=O)c2ccccc2)C(=O)N(c2ccccc2)N1c1ccccc1 (centres undefined) [SULFINPYRAZONE]
183.3 Å² | CCN1CCCC1CNC(=O)c1cc(S(N)(=O)=O)ccc1OC (centres undefined) [SULPIRIDE]
188.7 Å² | CN1CC(=O)N2[C@H](c3ccc4c(c3)OCO4)c3[nH]c4ccccc4c3C[C@@H]2C1=O [TADALAFIL]
169.8 Å² | CN1C(C(=O)Nc2ccccn2)=C(O)c2sccc2S1(=O)=O [TENOXICAM]
144 Å² | c1ccc(C2CN3CCSC3=N2)cc1 (centres undefined) [TETRAMIZOLE]
201.9 Å² | CN1CCN(CC/C=C2/c3ccccc3Sc3ccc(S(=O)(=O)N(C)C)cc32)CC1 [THIOTHIXENE]
180.7 Å² | Clc1ccc(C(Cn2ccnc2)OCc2ccsc2Cl)c(Cl)c1 (centres undefined) [TIOCONAZOLE]
173.3 Å² | Cc1ccc(S(=O)(=O)NC(=O)NN2CCCCCC2)cc1 [TOLAZAMIDE]
155.4 Å² | Nc1nc(N)c2nc(-c3ccccc3)c(N)nc2n1 [TRIAMTERENE]
148.3 Å² | CC1(C)C=Cc2cc3ccc(=O)oc3cc2O1 [XANTHYLETIN]
141.1 Å² | NC(Cc1ccc(F)cc1)C(=O)O (centres undefined) [p-FLUOROPHENYLALANINE]

The remaining lines, values behind:

Compound | collision cross section (N2)
O=c1c(O)c(-c2ccc(O)c(O)c2)oc2cc(O)cc(O)c12 [QUERCETIN] | 163.4 Å²
COC(=O)[C@H]1[C@H]2C[C@@H]3c4[nH]c5cc(OC)ccc5c4CCN3C[C@H]2C[C@@H](OC(=O)c2cc(OC)c(OC)c(OC)c2)[C@@H]1OC [RESERPINE] | 247.3 Å²
COc1ccc(/C=C/c2cc(O)cc(O)c2)cc1 [RESVERATROL 4'-METHYL ETHER] | 157.3 Å²
COc1ccc(-c2coc3c(O)c(OC)ccc3c2=O)cc1 [RETUSIN 7-METHYL ETHER] | 164.1 Å²
COc1cc(O)c2c(=O)c(OC)c(-c3ccc(OC)c(OC)c3)oc2c1 [RETUSIN] | 180.8 Å²
C[C@@H]1O[C@@H](O[C@H]2[C@H](Oc3cc(O)c4c(=O)cc(-c5ccc(O)cc5)oc4c3)O[C@H](CO)[C@@H](O)[C@@H]2O)[C@H](O)[C@H](O)[C@H]1O [RHOIFOLIN] | 231.9 Å²
CO[C@H]1/C=C/O[C@@]2(C)Oc3c(C)c(O)c4c(O)c(c5c(nc6cc(C)ccn65)c4c3C2=O)NC(=O)/C(C)=C\C=C\[C@H](C)[C@H](O)[C@@H](C)[C@@H](O)[C@@H](C)[C@H](OC(C)=O)[C@@H]1C [RIFAXIMIN] | 267.8 Å²
C=C(C)[C@H]1Cc2c(ccc3c2O[C@@H]2COc4cc(OC)c(OC)cc4[C@@H]2C3=O)O1 [ROTENONE] | 193.2 Å²
O=[N+]([O-])c1cc([As](=O)(O)O)ccc1O [ROXARSONE] | 145.5 Å²
COc1cc2c(cc1OC)C(C)NCC2 (centres undefined) [SALSOLIDINE] | 150.9 Å²
C[C@@H]1CC[C@@]2(NC1)O[C@H]1C[C@H]3[C@@H]4CC=C5C[C@@H](O)CC[C@]5(C)[C@H]4CC[C@]3(C)[C@H]1[C@@H]2C [SOLASODINE] | 207.8 Å²
CO[C@@H]1[C@@H](OC2OC(C)C(OC3CC(C)(O)C(O)C(C)O3)C(N(C)C)C2O)[C@@H](CC=O)C[C@@H](C)[C@@H](OC2CCC(N(C)C)C(C)O2)/C=C/C=C/C[C@@H](C)OC(=O)C[C@H]1O (some centres undefined) [SPIRAMYCIN] | 317 Å²
C[C@]12CC[C@H]3[C@@H](CC[C@]4(O)C[C@@H](O)CC[C@]34C=O)[C@@]1(O)CC[C@@H]2C1=CC(=O)OC1 [STROPHANTHIDIN] | 196.7 Å²
CC(=O)NS(=O)(=O)c1ccc(N)cc1 [SULFACETAMIDE] | 146.9 Å²
Cc1cc(C)nc(NS(=O)(=O)c2ccc(N)cc2)n1 [SULFAMETHAZINE] | 161.7 Å²
Cc1noc(NS(=O)(=O)c2ccc(N)cc2)c1C [SULFISOXAZOLE] | 159.1 Å²
COc1ccc(-c2cc(=O)c3c(OC)c(OC)c(OC)c(OC)c3o2)cc1 [TANGERITIN] | 182 Å²
C[C@]12CC[C@H]3[C@@H](CCC4=CC(=O)CC[C@@]43C)[C@@H]1CC[C@@H]2O [TESTOSTERONE] | 170.6 Å²
CCN(CC)CCOc1ccc2c(c1)C(=O)c1cc(OCCN(CC)CC)ccc1-2 [TILORONE] | 219.8 Å²
CCCCNC(=O)NS(=O)(=O)c1ccc(C)cc1 [TOLBUTAMIDE] | 161.9 Å²
CC(=O)Oc1ccc(/C=C/c2cc(OC(C)=O)cc(OC(C)=O)c2)cc1 [TRIACETYLRESVERATROL] | 171.1 Å²
CC1(C)O[C@@H]2C[C@H]3[C@@H]4CCC5=CC(=O)C=C[C@]5(C)[C@@]4(F)[C@@H](O)C[C@]3(C)[C@]2(C(=O)CO)O1 [TRIAMCINOLONE ACETONIDE] | 197.1 Å²
CC1(C)C2C[C@@H](O)[C@]3(C)C(CC[C@@]4(C)[C@H](c5ccoc5)OC(=O)[C@H]5O[C@]543)[C@@]2(C)[C@@H](O)C[C@H]1O (some centres undefined) [TRIDESACETOXYKHIVORIN] | 201.5 Å²
COc1cc(Cc2cnc(N)nc2N)cc(OC)c1OC [TRIMETHOPRIM] | 171.2 Å²
C[C@H](CCC(=O)O)[C@H]1CC[C@H]2[C@@H]3CC[C@@H]4CCCC[C@]4(C)[C@H]3CC[C@]12C [URSOCHOLANIC ACID] | 169.3 Å²
CCC(C)C(=O)O[C@@H]1C[C@@]2(C)[C@H](c3ccoc3)OC(=O)CC23OC2(C)O[C@]14[C@]1(C)[C@@H](CC(=O)OC)C5(C)CC1(O)[C@](O)(C5OC(=O)C1(C)OC1C)[C@@H](OC(C)=O)[C@]34O2 (some centres undefined) [UTILIN] | 252.5 Å²
COc1c2ccoc2cc2oc(C)cc(=O)c12 [VISNAGIN] | 139.1 Å²
Cc1cccc(C)c1NC1=NCCCS1 [XYLAZINE] | 147.8 Å²

Same assay, conditions: [M+Na]+; instrument: TW; calibrated with polyalanine and drug standards

collision cross section (N2) | Compound
186.2 Å² | CCCCCCCCCCCC[C@@H](C(=O)O)[C@H](C)C(=O)O [ROCCELLIC ACID]
177.2 Å² | OC[C@H]1O[C@H](O[C@]2(CCl)O[C@H](CCl)[C@@H](O)[C@@H]2O)[C@H](O)[C@@H](O)[C@H]1Cl [SUCRALOSE]
267 Å² | C=CC[C@@H]1/C=C(\C)C[C@H](C)C[C@H](OC)[C@H]2O[C@@](O)(C(=O)C(=O)N3CCCC[C@H]3C(=O)O[C@H](/C(C)=C/[C@@H]3CC[C@@H](O)[C@H](OC)C3)[C@H](C)[C@@H](O)CC1=O)[C@H](C)C[C@@H]2OC [TACROLIMUS]

— the C3SDB collision cross section collection
